Experimental data: publication PMC4894499 (Journal of pharmaceutical sciences, 2016)

Assays:
[1] = Bile acid toxicity: intracellular ATP; type: cell-based, rat; settings: rat, sandwich-cultured hepatocytes (SCH)
[2] = Bile acid toxicity: LDH release in human SCH; type: cell-based; settings: human, sandwich-cultured hepatocytes (SCH)
[3] = Bile acid toxicity: intracellular ATP; type: cell-based, human; settings: human, sandwich-cultured hepatocytes (SCH)
[4] = Bile acid toxicity: LDH release in rat SCH; type: cell-based; settings: rat, sandwich-cultured hepatocytes (SCH)
human SCH [5] = assay: Intracellular bile acid concentrations by LC-MS/MS in human SCH; type: in vitro ADME; settings: LCA-treated SCH
rat SCH [6] = assay: Bile acid toxicity: intracellular ATP; type: cell-based; settings: rat SCH, 0 – 0.2 mM LCA, 6, 12, 24 hr
human SCH [7] = assay: Bile acid toxicity: LDH release in human SCH; type: cell-based; settings: human SCH, 0 – 0.2 mM LCA, 6, 12, 24 hr
human SCH [8] = assay: Bile acid toxicity: intracellular ATP; type: cell-based; settings: human SCH, 0 – 0.2 mM LCA, 6, 12, 24 hr
rat SCH [9] = assay: Bile acid toxicity: LDH release in rat SCH; type: cell-based; settings: rat SCH, 0 – 0.2 mM LCA, 6, 12, 24 hr
rat SCH [10] = tested on: rat SCH
rat SCH [11] = settings: cited from earlier work
human SCH [12] = settings: cited from earlier work
human SCH [13] = settings: cited from earlier work; for Effect on total (cell + bile) and cellular accumulation of TCA: concentration-dependent
human SCH [14] = settings: fold greater; cited from earlier work
human SCH [15] = settings: cited from earlier work; remark: listed apart in the source
rat SCH [16] = settings: cited from earlier work; remark: listed apart in the source
P-gp = settings: human SCH, treatment for 3 days; cited from earlier work
CYP3A4 and UGT1A1 = settings: human SCH; cited from earlier work
human SCH [17] = settings: cited from earlier work; remark: listed apart in the source

C[C@H](CCC(=O)O)[C@H]1CC[C@H]2[C@@H]3[C@H](O)C[C@@H]4C[C@H](O)CC[C@]4(C)[C@H]3CC[C@]12C [CDCA, chenodeoxycholic acid]
CC50 at 24 h [1]: 351 µM
CC50 at 24 h [2]: 972 µM
CC50 at 24 h [3]: 568 µM
CC50 at 24 h [4]: 243 µM

C[C@H](CCC(=O)NCC(=O)O)[C@H]1CC[C@H]2[C@@H]3CC[C@@H]4C[C@H](O)CC[C@]4(C)[C@H]3CC[C@]12C [GLCA, glycolithocholic acid]
Intracellular concentration in human SCH compared with rat SCH (human SCH [5]): comparable

C[C@H](CCC(=O)O)[C@H]1CC[C@H]2[C@@H]3CC[C@@H]4C[C@H](O)CC[C@]4(C)[C@H]3CC[C@]12C [LCA, lithocholic acid]
CC50 at 24 h [1]: 147 µM
Effect on cellular ATP (rat SCH [6]): concentration-dependent decrease
LDH leakage (human SCH [7]): minimal
CC50 at 24 h [3]: 155 µM
Effect on cellular ATP (human SCH [8]): delayed decrease
CC50 at 24 h [4]: 146 µM
LDH leakage (rat SCH [9]): increase
Intracellular concentration in human SCH compared with rat SCH (human SCH [5]): comparable

C[C@H](CCC(=O)NCCS(=O)(=O)O)[C@H]1CC[C@H]2[C@@H]3[C@H](O)C[C@@H]4C[C@H](O)CC[C@]4(C)[C@H]3CC[C@]12C [TCDCA, taurochenodeoxycholic acid]
Cellular concentration relative to CDCA, fold lower (rat SCH [10]): ~ 100 fold

Cc1c(C)c2c(c(C)c1O)CCC(C)(COc1ccc(CC3SC(=O)NC3=O)cc1)O2 (stereo not shown) [TGZ, troglitazone]
Effect on CDCA accumulation in hepatocytes (rat SCH [11]): increased
Effect on cellular accumulation of TCA (rat SCH [11]): decreased
Effect on canalicular efflux of TCA (human SCH [12]): significantly reduced

C[C@H](CCC(=O)NCCS(=O)(=O)O)[C@H]1CC[C@H]2[C@@H]3CC[C@@H]4C[C@H](O)CC[C@]4(C)[C@H]3CC[C@]12C [TLCA, taurolithocholic acid]
Intracellular concentration in human SCH relative to rat SCH, fold lower (human SCH [5]): ~ 100 fold

COC(c1ccccc1)(c1ccccc1)[C@H](Oc1nc(C)cc(C)n1)C(=O)O [ambrisentan]
Effect on BEI and apparent biliary clearance of TCA (TCA biliary excretion) (human SCH [13]): minimal inhibitory effects
Hepatocyte concentration relative to medium concentration (human SCH [14]): 2 fold

COC(=O)N[C@H](C(=O)N[C@@H](Cc1ccccc1)[C@@H](O)CN(Cc1ccc(-c2ccccn2)cc1)NC(=O)[C@@H](NC(=O)OC)C(C)(C)C)C(C)(C)C [atazanavir]
Effect on CGamF accumulation (human SCH [15]): potently inhibited

COc1ccccc1Oc1c(NS(=O)(=O)c2ccc(C(C)(C)C)cc2)nc(-c2ncccn2)nc1OCCO [bosentan]
Effect on BEI and apparent biliary clearance of TCA (TCA biliary excretion) (human SCH [13]): significantly decreased
Effect on sodium-dependent TCA uptake (human SCH [13]): significantly inhibited
Effect on total (cell + bile) and cellular accumulation of TCA (human SCH [13]): significantly decreased
Hepatocyte concentration relative to medium concentration (human SCH [14]): 20 fold

CCCC1O[C@@H]2C[C@H]3[C@@H]4CCC5=CC(=O)C=C[C@]5(C)[C@H]4[C@@H](O)C[C@]3(C)[C@]2(C(=O)CO)O1 (stereo partly shown) [budesonide]
Effect on canalicular efflux of TCA (human SCH [12]): minimal effects

CC(C)CN(C[C@@H](O)[C@H](Cc1ccccc1)NC(=O)O[C@H]1CO[C@H]2OCC[C@H]21)S(=O)(=O)c1ccc(N)cc1 [darunavir]
Effect on CGamF accumulation (human SCH [15]): potently inhibited

COc1ccc(Cl)cc1C(=O)NCCc1ccc(S(=O)(=O)NC(=O)NC2CCCCC2)cc1 [glyburide]
Effect on canalicular efflux of TCA (human SCH [12]): minimal effects

CC(C)(C)NC(=O)[C@@H]1CN(Cc2cccnc2)CCN1C[C@@H](O)C[C@@H](Cc1ccccc1)C(=O)N[C@H]1c2ccccc2C[C@H]1O [indivanir]
Effect on CGamF accumulation (human SCH [15]): potently inhibited

COC(=O)C1=C(C)NC(C)=C(C(=O)OC(C)C)C1c1cccc2nonc12 (stereo not shown) [isradipine]
Effect on canalicular efflux of TCA (human SCH [12]): minimal effects

Cc1cccc(C)c1OCC(=O)N[C@@H](Cc1ccccc1)[C@@H](O)C[C@H](Cc1ccccc1)NC(=O)[C@H](C(C)C)N1CCCNC1=O [lopinavir]
Effect on TCA biliary excretion (BEI and CLb, app, in vitro) (rat SCH [16]): significantly reduced
Effect on intracellular accumulation of TCA (rat SCH [16]): increased

CCCNS(=O)(=O)Nc1ncnc(OCCOc2ncc(Br)cn2)c1-c1ccc(Br)cc1 [macitentan]
Effect on BEI and apparent biliary clearance of TCA (TCA biliary excretion) (human SCH [13]): significantly decreased
Effect on total (cell + bile) and cellular accumulation of TCA (human SCH [13]): significantly decreased
Hepatocyte concentration relative to medium concentration (human SCH [14]): about 100 fold

CC#C[C@]1(O)CC[C@H]2[C@@H]3CCC4=CC(=O)CCC4=C3[C@@H](c3ccc(N(C)C)cc3)C[C@@]21C [mifepristone]
Effect on canalicular efflux of TCA (human SCH [12]): minimal effects

CO[C@H]1/C=C/O[C@@]2(C)Oc3c(C)c(O)c4c(O)c(c(/C=N/N5CCN(C)CC5)c(O)c4c3C2=O)NC(=O)/C(C)=C\C=C\[C@H](C)[C@H](O)[C@@H](C)[C@@H](O)[C@@H](C)[C@H](OC(C)=O)[C@@H]1C [rifampicin]
Effect on BEI of digoxin (P-gp): increase

CO[C@H]1/C=C/O[C@@]2(C)Oc3c(C)c(O)c4c(O)c(cc(O)c4c3C2=O)NC(=O)/C(C)=C\C=C\[C@H](C)[C@H](O)[C@@H](C)[C@@H](O)[C@@H](C)[C@H](OC(C)=O)[C@@H]1C [rifamycin SV]
Effect on intracellular accumulation of buprenorphine and midazolam (CYP3A4 and UGT1A1): increased

CC(C)c1nc(CN(C)C(=O)N[C@H](C(=O)N[C@@H](Cc2ccccc2)C[C@H](O)[C@H](Cc2ccccc2)NC(=O)OCc2cncs2)C(C)C)cs1 [ritonavir]
Effect on TCA biliary excretion (BEI and CLb, app, in vitro) (rat SCH [16]): significantly reduced
Effect on intracellular accumulation of TCA (rat SCH [16]): increased
Effect on 99mTc–mebrofenin uptake (human SCH [17]): decreased
Effect on BEI of 99mTc–mebrofenin (human SCH [17]): without changing
Effect on canalicular efflux of TCA (human SCH [12]): significantly reduced

CN(CCOc1ccc(CC2SC(=O)NC2=O)cc1)c1ccccn1 (stereo not shown) [rosiglitazone]
Effect on canalicular efflux of TCA (human SCH [12]): significantly reduced

Cc1cc2c(cc1CC(=O)c1sccc1S(=O)(=O)Nc1onc(C)c1Cl)OCO2 [sitaxsentan]
Effect on sodium-dependent TCA uptake (human SCH [13]): significantly inhibited
Hepatocyte concentration relative to medium concentration (human SCH [14]): 40 fold
